Where two headings read alike, the source gives them in different places.
Tests used:
[1] = target: T1, GST-EGFR-KD^WT (Homo sapiens, UniProt P00533); assay: EGFR kinase assay (Kinase-Glo); type: biochemical; conditions: 5 μM ATP, read-out: IC50 (concentration at which activity of 50% of EGFR is inhibited)
T1 construct: 50 ng GST-EGFR-KD^WT proteins; made in house
Method: Following incubation, 50 μl Kinase-Glo Plus Reagent (Promega) was added and the mixture was further incubated at 25° C. for 20 min.

[2] = system: HCC827 cells; assay: HCC827 cell viability, MTS assay; type: cell-based; conditions: Homo sapiens, 96-h incubation, read-out: IC50 (concentration which causes 50% of the cell death)
Method: HCC827 cell viability was examined by the MTS assay (Promega, Madison, Wis., USA). 1000 HCC827 cells in 100 μl RPMI1640 with 10% FBS medium were seeded in each well of a 96-well plate. After 96-h incubation with a test compound, the cells were further incubated with 20 μl of a MTS/PMS mixture (MTS/PMS ratio: 20:1) in each well of the 96-well plate for 2 h at 37° C. in a humidified incubator with 5% CO2 to allow viable cells to convert the tetrazolium salt (MTS) into formazan. The amount/concentration of formazan, which indicates the number of live cells, was determined by measuring its absorbance at 490 nm using a PerkinElmer Victor2 plate reader (PerkinElmer, Shelton, Conn., USA).

T1 sequence (P00533 712-979 limits assumed): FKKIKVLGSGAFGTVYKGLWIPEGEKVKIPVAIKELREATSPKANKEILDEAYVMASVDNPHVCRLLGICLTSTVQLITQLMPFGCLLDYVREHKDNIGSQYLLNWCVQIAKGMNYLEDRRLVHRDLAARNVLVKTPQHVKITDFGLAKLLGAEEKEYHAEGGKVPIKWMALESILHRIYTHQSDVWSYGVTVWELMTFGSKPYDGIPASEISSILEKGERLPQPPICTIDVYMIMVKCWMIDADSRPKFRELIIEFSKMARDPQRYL

Row | SMILES | IC50 ([1]; range given in mixed units) | IC50 [2] | IC50 [1]
1 | OC[C@@H](Nc1ncnc2sc3c(c12)CCCC3)c1ccccc1 [Compound 1, S-2-phenyl-2-(5,6,7,8-tetrahydro-benzo[4,5]thieno[2,3-d]pyrimidin-4-ylamino)-ethanol] | 101 to 900 nM | 100 to 300 nM | 
2 | OC[C@@H](Nc1ncnc2sc3c(c12)CCC3)c1ccccc1 [Compound 3] |  | 301 to 999 nM | 
3 | Cc1sc2ncnc(N[C@H](CO)c3ccccc3)c2c1C [Compound 4, (S)-2-(5,6-dimethylthieno[2,3-d]pyrimidin-4-ylamino)-2-phenylethanol] |  | 301 to 999 nM | 
4 | OC[C@@H](Nc1ncnc2sc(-c3ccccc3)cc12)c1ccccc1 [Compound 7] | 101 to 900 nM |  | 
5 | OC[C@@H](Nc1ncnc2sc(-c3ccccc3)c(Cl)c12)c1ccccc1 [Compound 8] | 101 to 900 nM |  | 
6 | C=CC(=O)N1CCc2c(sc3ncnc(N[C@H](CO[Si](C)(C)C(C)(C)C)c4ccccc4)c23)C1 [Compound 15] | 101 to 900 nM | 301 to 999 nM | 
7 | O=C(O)[C@@H](Nc1ncnc2sc3c(c12)CCCC3)c1ccccc1 [Compound 18] | 101 to 900 nM |  | 
8 | O=C(O)[C@@H](Nc1ncnc2sc3c(c12)CCC3)c1ccccc1 [Compound 20] | 101 to 900 nM |  | 
9 | O=C(O)[C@@H](Nc1ncnc2sc(-c3ccccc3)cc12)c1ccccc1 [Compound 22] | 101 to 900 nM |  | 
10 | CC[C@@H](Nc1ncnc2sc3c(c12)CCCC3)c1ccccc1 [Compound 23] | 101 to 900 nM | 301 to 999 nM | 
11 | OC[C@@H](Nc1ncnc2oc(-c3ccccc3)c(-c3ccccc3)c12)c1ccccc1 [Compound 31, S-2-(5,6-diphenyl-furo[2,3-d]pyrimidin-4-ylamino)-2-phenyl-ethanol] | 101 to 900 nM | 301 to 999 nM | 
12 | COc1ccc(-c2c(-c3ccccc3)oc3ncnc(N[C@H](CO)c4ccccc4)c23)cc1 [Compound 35] | 101 to 900 nM | 100 to 300 nM | 
13 | COc1ccc(-c2oc3ncnc(N[C@H](CO)c4ccccc4)c3c2-c2ccc(OC)cc2)cc1 [Compound 36] |  |  | 60 to 100 nM
14 | CC(=O)Nc1ccc(-c2c(-c3ccccc3)oc3ncnc(N[C@H](CO)c4ccccc4)c23)cc1 [Compound 37] |  | 100 to 300 nM | 60 to 100 nM
15 | CC(=O)Nc1cccc(-c2c(-c3ccccc3)oc3ncnc(N[C@H](CO)c4ccccc4)c23)c1 [Compound 38] | 101 to 900 nM | 100 to 300 nM | 
16 | OC[C@@H](Nc1ncnc2oc(-c3ccccc3)c(-c3ccco3)c12)c1ccccc1 [Compound 40] | 101 to 900 nM | 301 to 999 nM | 
17 | OC[C@@H](Nc1ncnc2oc(-c3ccccc3)c(-c3ccoc3)c12)c1ccccc1 [Compound 41] | 101 to 900 nM | 100 to 300 nM | 
18 | CC(=O)OC[C@@H](Nc1ncnc2oc(-c3ccccc3)c(Br)c12)c1ccccc1 [Compound 44] |  | 301 to 999 nM | 
19 | OC[C@@H](Nc1ncnc2oc(-c3ccccc3)c(Cl)c12)c1ccccc1 [Compound 45] | 101 to 900 nM |  | 

Row | SMILES | IC50 ([1]; range given in mixed units) | IC50 [2] | IC50 [1]
20 | COC(=O)[C@@H](Nc1ncnc2oc(-c3ccccc3)c(-c3ccccc3)c12)c1ccccc1 [Compound 46] |  | 301 to 999 nM | 
21 | CCOC(=O)[C@@H](Nc1ncnc2oc(-c3ccccc3)c(-c3ccccc3)c12)c1ccccc1 [Compound 47] |  | 301 to 999 nM | 
22 | O=C(O)[C@@H](Nc1ncnc2oc(-c3ccccc3)c(-c3ccccc3)c12)c1ccccc1 [Compound 50] |  |  | < 59 nM
23 | O=C(O)[C@@H](Nc1ncnc2oc(-c3ccccc3)c(Br)c12)c1ccccc1 [Compound 53] |  |  | < 59 nM
24 | CC[C@@H](Nc1ncnc2oc(-c3ccccc3)c(-c3ccccc3)c12)c1ccccc1 [Compound 54] |  | 301 to 999 nM | 
25 | CC[C@@H](Nc1ncnc2oc(-c3ccccc3)cc12)c1ccccc1 [Compound 56] |  | 301 to 999 nM | 
26 | O=C(O)/C=C\C(=O)N1CCc2c(sc3ncnc(N[C@H](CO)c4ccccc4)c23)C1 [Compound 61] | 101 to 900 nM |  | 
27 | CCOC(=O)/C=C/C(=O)N1CCc2c(sc3ncnc(N[C@H](CO)c4ccccc4)c23)C1 [Compound 68] |  | 1 to 99 nM | 
28 | C=CC(=O)Nc1ccc(-c2c(-c3ccccc3)oc3ncnc(N[C@H](CO)c4ccccc4)c23)cc1 [Compound 118, S—N-{4-[4-(2-Hydroxy-1-phenyl-ethylamino)-6-phenyl-furo[2,3-d]pyrimidin-5-yl]-phenyl}-acrylamide] |  | 301 to 999 nM | 60 to 100 nM
29 | C=CC(=O)Nc1ccc(-c2nc3c(N[C@H](CO)c4ccccc4)ncnc3o2)cc1 [Compound 154] | 101 to 900 nM |  | 
30 | CN(C)C/C=C/C(=O)N1CCc2c(sc3ncnc(N[C@H](CO[Si](C)(C)C(C)(C)C)c4ccccc4)c23)C1 [Compound 186] |  | 301 to 999 nM | 60 to 100 nM
31 | CN(C)C/C=C/C(=O)N1CCc2c(sc3ncnc(N[C@H](CO)Cc4ccccc4)c23)C1 [Compound 192] | 101 to 900 nM | 1 to 99 nM | 
32 | CN(C)C/C=C/C(=O)N1CCc2c(sc3ncnc(N[C@H](CCO)c4ccccc4)c23)C1 [Compound 194] |  | 1 to 99 nM | < 59 nM
33 | CCN(CC)C/C=C/C(=O)N1CCc2c(sc3ncnc(N[C@H](CCO)c4ccccc4)c23)C1 [Compound 199] |  |  | < 59 nM
34 | CC(C)NC/C=C/C(=O)N1CCc2c(sc3ncnc(N[C@H](C)c4ccccc4)c23)C1 [Compound 204] | 101 to 900 nM | 1 to 99 nM | 
35 | C[C@@H](Nc1ncnc2sc3c(c12)CCN(C(=O)/C=C/CNc1ccccc1)C3)c1ccccc1 [Compound 206] | 101 to 900 nM | 301 to 999 nM | 
36 | C[C@@H](Nc1ncnc2sc3c(c12)CCN(C(=O)/C=C/CN=[N+]=[N-])C3)c1ccccc1 [Compound 208] |  | 1 to 99 nM | < 59 nM
37 | C[C@@H](Nc1ncnc2sc3c(c12)CCN(C(=O)/C=C/CN(C)C)C3)c1ccc(Br)cc1 [Compound 209] |  | 1 to 99 nM | < 59 nM
38 | C[C@@H](Nc1ncnc2sc3c(c12)CCN(C(=O)/C=C/CNN1CCCCC1)C3)c1ccccc1 [Compound 212] |  | 1 to 99 nM | < 59 nM

Row | SMILES | IC50 ([1]; range given in mixed units) | IC50 [2] | IC50 [1]
39 | C[C@@H](Nc1ncnc2sc3c(c12)CCN(C(=O)/C=C/CN(C)CCO)C3)c1ccccc1 [Compound 213] |  | 1 to 99 nM | < 59 nM
40 | CC(=O)OC/C=C/C(=O)N1CCc2c(sc3ncnc(N[C@H](C)c4ccccc4)c23)C1 [Compound 214] |  | 1 to 99 nM | < 59 nM
41 | CCN(C/C=C/C(=O)N1CCc2c(sc3ncnc(N[C@H](C)c4ccccc4)c23)C1)CCO [Compound 216] |  | 1 to 99 nM | < 59 nM
42 | CCC[C@@H](Nc1ncnc2sc3c(c12)CCN(C(=O)/C=C/CN(C)C)C3)c1ccccc1 [Compound 217] |  | 1 to 99 nM | < 59 nM
43 | CN(C)C/C=C/C(=O)N1CCc2c(sc3ncnc(N[C@H](CCOCc4ccccc4F)c4ccccc4)c23)C1 [Compound 218] |  | 1 to 99 nM | < 59 nM
44 | CN(C)C/C=C/C(=O)N1CCc2c(sc3ncnc(N[C@H](COCc4ccc(F)cc4)c4ccccc4)c23)C1 [Compound 219] |  | 1 to 99 nM | < 59 nM
45 | C/C=C/C(=O)N1CCc2c(sc3ncnc(N[C@H](COCc4cccc(F)c4)c4ccccc4)c23)C1 [Compound 220] |  |  | 60 to 100 nM
46 | CN(C)C/C=C/C(=O)N1CCc2c(sc3ncnc(N[C@H](COCc4ccncc4)c4ccccc4)c23)C1 [Compound 224] |  | 1 to 99 nM | < 59 nM
47 | COC[C@@H](Nc1ncnc2sc3c(c12)CCN(C(=O)/C=C/CN(C)C)C3)c1ccccc1 [Compound 229] |  | 1 to 99 nM | < 59 nM
48 | CCN(CC)C/C=C/C(=O)N1CCc2c(sc3ncnc(N[C@H](COC)c4ccccc4)c23)C1 [Compound 230] |  | 1 to 99 nM | 60 to 100 nM
49 | CN(C)C/C=C/C(=O)N1CCc2c(sc3ncnc(N[C@H](COCc4cccnc4)c4ccccc4)c23)C1 [Compound 231] |  | 1 to 99 nM | < 59 nM
50 | C=CC(=O)Nc1ccc(-c2c(-c3ccccc3)oc3ncnc(N[C@H](C)c4ccccc4)c23)cc1 [Compound 238] | 101 to 900 nM | 1 to 99 nM | 
51 | CC#CC(=O)Nc1cccc(-c2c(-c3ccccc3)oc3ncnc(N[C@H](COC)c4ccccc4)c23)c1 [Compound 242] | 101 to 900 nM |  | 
52 | C=CC(=O)Nc1cccc(-c2coc3ncnc(N[C@H](CO)c4ccccc4)c23)c1 [Compound 244] |  | 301 to 999 nM | 60 to 100 nM
53 | C=CC(=O)Nc1cccc(-c2cc3c(N[C@H](CO)c4ccccc4)ncnc3s2)c1 [Compound 245] |  | 100 to 300 nM | < 59 nM
54 | C=CC(=O)Nc1cccc(-c2csc3ncnc(N[C@H](CO)c4ccccc4)c23)c1 [Compound 246] |  | 1 to 99 nM | < 59 nM
55 | C=CC(=O)Nc1cccc(-c2c(-c3ccccc3)oc3ncnc(N(C)C(COC)c4ccccc4)c23)c1 (stereo not shown) [Compound 247] | 101 to 900 nM |  | 
56 | COCCN(C)C/C=C/C(=O)N1CCc2c(sc3ncnc(N[C@H](CO)c4ccccc4)c23)C1 [Compound 327] |  |  | < 59 nM

Reference: patent publication US8507502B2, “Fused bicyclic and tricyclic pyrimidine compounds as tyrosine kinase inhibitors” (National Health Research Institutes, priority 2008, dated 2013)
